Article PMC7427733, “Novel xylose transporter Cs4130 expands the sugar uptake repertoire in recombinant Saccharomyces cerevisiae strains at high xylose concentrations” (Biotechnology for Biofuels, 2020)

Tests used:
Gxf1 [1] = target: T1, Gxf1 (Sungouiella intermedia, UniProt Q2MDH1); assay: growth complementation (spot assay) and sugar consumption (HPLC) in transporter-null yeast; type: cell-based; settings: S. cerevisiae EBY_Xyl1, 30 °C, 20 g/L glucose spot assay; 10 g/L glucose with 10 g/L xylose in fermentation; uptake inferred
T1 sequence (Q2MDH1 1-547): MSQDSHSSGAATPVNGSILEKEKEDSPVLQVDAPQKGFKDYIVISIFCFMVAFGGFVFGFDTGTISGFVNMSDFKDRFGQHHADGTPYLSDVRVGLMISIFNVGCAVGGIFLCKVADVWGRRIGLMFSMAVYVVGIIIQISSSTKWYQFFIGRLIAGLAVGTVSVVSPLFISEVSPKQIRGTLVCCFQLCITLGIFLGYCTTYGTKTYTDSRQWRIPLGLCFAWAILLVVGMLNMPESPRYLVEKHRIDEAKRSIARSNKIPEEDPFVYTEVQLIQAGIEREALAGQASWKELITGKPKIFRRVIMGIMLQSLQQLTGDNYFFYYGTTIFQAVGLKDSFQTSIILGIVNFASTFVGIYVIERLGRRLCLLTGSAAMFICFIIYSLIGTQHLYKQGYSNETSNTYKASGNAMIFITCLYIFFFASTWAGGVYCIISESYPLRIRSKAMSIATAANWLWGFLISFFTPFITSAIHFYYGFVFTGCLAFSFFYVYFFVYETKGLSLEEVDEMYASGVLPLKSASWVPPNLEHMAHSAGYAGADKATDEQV

Gxf1 [2] = target: T1, Gxf1; assay: as above; type: cell-based; settings: S. cerevisiae EBY_Xyl1, 30 °C, xylose 5-50 g/L; uptake inferred

Structure (SMILES)	growth complementation (spot assay) and sugar consumption (HPLC) in transporter- (Gxf1 [1])	growth complementation (spot assay) and sugar consumption (HPLC) in transporter- (Gxf1 [2])
OC[C@H]1OC(O)[C@H](O)[C@@H](O)[C@@H]1O (some centres unmarked) [glucose]	Cs3894 and Gxf1 were able to support better and similar patterns of growth on glucose	–
OC1OC[C@@H](O)[C@H](O)[C@H]1O (some centres unmarked) [xylose]	–	The facilitator Gxf1 restored growth in all xylose concentrations evaluated
